Reference: US10844067B2, “Heterocyclic compounds as RET kinase inhibitors” (Cancer Research Technology Limited, priority 2016, dated 2020)
Where two headings read alike, the source gives them in different places.

Columns and labels:
RET = RET (Homo sapiens (Human), UniProt P07949); experiment: RET enzyme assay (CisBio HTRF kinEASE); type: biochemical; settings: for IC50: ATP at Km
KDR = KDR (Homo sapiens (Human), UniProt P35968); experiment: KDR enzyme assay (CisBio HTRF kinEASE); type: biochemical; settings: ATP at Km
RET^V804M = RET^V804M (Homo sapiens (Human), UniProt P07949, V804M); experiment: RET^V804M enzyme assay; type: biochemical
[1] = target: BaF3 cell lines expressing KIF5B-RET (Homo sapiens, UniProt P07949); type: cell-based; settings: read-out: RET Cell IC50
Description: (§1) The system originally developed by Daley and Baltimore^16 was used, whereby IL3-dependent BaF3 cells are modified to express an activated recombinant kinase. Following removal of IL3, the modified cells are dependent on the activity of the recombinant kinase for survival and proliferation. […] Following incubation of the cells for 48 hours at 37° C. in a humidified 5% CO2 atmosphere, viability was determined by addition of 10 μL CellTiter-Glo reagent (Promega) and measurement of luminescence.

[2] = system: BaF3 cell lines expressing KDR; experiment: BaF3 cell assay, KDR (CellTiter-Glo viability); type: cell-based; settings: Mus musculus, BaF3 cells expressing KDR, 48 hours
Description: as §1

RET^V804M Cell = experiment: BaF3 cell assay, RET^V804M (CellTiter-Glo viability); type: cell-based; settings: Mus musculus, RET^V804M cells, 48 hours
Description: as §1

[3] = system: Non-modified BaF3 cells (WT); experiment: BaF3 cell assay, non-modified (WT) cells with IL3; settings: Mus musculus, BaF3, 48 h, read-out: BaF3 IC50
Description: as §1

RET^V804M, sequence (P07949 29-1114 V804M): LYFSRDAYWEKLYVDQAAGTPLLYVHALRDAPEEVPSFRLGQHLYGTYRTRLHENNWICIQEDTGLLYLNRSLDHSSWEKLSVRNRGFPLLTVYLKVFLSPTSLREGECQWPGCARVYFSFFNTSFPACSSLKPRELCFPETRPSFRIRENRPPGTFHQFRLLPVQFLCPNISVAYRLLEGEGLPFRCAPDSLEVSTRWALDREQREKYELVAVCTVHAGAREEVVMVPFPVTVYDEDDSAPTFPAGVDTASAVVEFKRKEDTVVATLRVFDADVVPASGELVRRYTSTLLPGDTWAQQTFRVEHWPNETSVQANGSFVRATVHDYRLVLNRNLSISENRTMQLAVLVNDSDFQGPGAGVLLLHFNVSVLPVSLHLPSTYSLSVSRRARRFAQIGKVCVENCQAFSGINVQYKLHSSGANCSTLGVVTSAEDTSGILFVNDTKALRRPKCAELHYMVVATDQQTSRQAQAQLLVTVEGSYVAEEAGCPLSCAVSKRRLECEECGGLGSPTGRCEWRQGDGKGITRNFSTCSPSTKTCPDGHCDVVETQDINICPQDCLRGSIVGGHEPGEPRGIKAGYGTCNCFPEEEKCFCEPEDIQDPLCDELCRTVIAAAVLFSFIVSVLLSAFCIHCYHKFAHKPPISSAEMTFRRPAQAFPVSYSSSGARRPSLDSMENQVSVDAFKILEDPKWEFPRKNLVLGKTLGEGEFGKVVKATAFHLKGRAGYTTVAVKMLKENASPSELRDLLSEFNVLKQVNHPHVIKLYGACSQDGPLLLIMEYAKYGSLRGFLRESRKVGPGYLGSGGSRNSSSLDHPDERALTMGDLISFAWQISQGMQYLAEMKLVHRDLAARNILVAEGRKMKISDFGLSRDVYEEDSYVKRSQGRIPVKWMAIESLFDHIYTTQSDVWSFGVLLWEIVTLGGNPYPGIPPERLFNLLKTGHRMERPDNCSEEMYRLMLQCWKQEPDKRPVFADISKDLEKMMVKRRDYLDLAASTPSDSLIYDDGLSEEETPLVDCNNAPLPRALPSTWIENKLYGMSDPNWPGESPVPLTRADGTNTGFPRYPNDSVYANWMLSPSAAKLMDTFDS
KDR, sequence (P35968 20-1356): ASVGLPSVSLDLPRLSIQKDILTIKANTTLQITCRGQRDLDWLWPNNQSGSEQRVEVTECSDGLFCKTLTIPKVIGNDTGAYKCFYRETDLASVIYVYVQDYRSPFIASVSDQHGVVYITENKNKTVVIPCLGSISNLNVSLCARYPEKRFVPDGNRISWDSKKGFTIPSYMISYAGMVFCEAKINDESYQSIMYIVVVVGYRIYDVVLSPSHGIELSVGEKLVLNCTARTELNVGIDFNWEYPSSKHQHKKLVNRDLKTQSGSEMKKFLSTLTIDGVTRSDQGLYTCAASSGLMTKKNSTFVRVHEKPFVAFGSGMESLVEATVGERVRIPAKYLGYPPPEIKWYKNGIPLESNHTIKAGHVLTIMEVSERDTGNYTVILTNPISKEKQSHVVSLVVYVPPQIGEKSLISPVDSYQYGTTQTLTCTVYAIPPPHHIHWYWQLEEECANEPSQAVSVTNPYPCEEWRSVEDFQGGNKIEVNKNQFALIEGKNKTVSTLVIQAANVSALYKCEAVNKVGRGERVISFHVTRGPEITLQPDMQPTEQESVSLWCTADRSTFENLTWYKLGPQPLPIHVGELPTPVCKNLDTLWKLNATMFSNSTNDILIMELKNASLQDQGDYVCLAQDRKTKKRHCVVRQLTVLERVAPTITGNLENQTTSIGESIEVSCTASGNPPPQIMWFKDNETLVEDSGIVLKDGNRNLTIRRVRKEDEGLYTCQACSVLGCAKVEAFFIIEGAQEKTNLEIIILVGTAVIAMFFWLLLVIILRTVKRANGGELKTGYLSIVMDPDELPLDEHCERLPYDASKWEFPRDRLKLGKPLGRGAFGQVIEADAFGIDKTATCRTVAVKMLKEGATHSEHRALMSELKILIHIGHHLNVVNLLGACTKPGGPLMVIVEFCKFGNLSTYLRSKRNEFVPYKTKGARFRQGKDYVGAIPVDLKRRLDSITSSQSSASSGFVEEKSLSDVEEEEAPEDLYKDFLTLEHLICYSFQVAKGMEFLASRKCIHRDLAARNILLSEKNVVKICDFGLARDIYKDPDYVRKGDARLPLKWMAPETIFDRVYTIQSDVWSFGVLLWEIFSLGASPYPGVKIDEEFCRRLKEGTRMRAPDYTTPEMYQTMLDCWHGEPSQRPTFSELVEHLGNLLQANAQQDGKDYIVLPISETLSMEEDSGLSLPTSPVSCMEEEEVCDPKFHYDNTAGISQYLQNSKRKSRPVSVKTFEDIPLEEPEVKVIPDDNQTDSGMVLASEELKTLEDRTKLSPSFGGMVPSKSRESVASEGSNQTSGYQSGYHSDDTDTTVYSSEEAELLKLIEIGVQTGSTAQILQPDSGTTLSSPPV
RET, sequence (P07949 29-1114): as the sequence (P07949 29-1114 V804M) above, with M776V counted along it
BaF3 cell lines expressing KIF5B-RET, sequence (P07949 29-1114 limits assumed, change not shown): as the sequence (P07949 29-1114 V804M) above, with M776V counted along it

Compound: CC(C)(C)n1nc(-c2cc3ncccc3[nH]2)c2c(N)ncnc21 [1-tert-butyl-3-(1H-pyrrolo[3,2-b]pyridin-2-yl)pyrazolo[3,4-d]pyrimidin-4-amine]
- desired activity in the assays described in the Examples section (RET): did not exhibit the desired activity

Compound: Nc1ncnc2c1c(-c1[nH]c3ncccc3c1Cl)nn2CC(=O)O [2-(4-amino-3-(3-chloro-1H-pyrrolo[2,3-b]pyridin-2-yl)-1H-pyrazolo[3,4-d]pyrimidin-1-yl)acetic acid]
- desired activity in the assays described in the Examples section (RET): did not exhibit the desired activity

Compound: CC(C)CCn1nc(-c2[nH]c3ccccc3c2Cl)c2c(N)ncnc21 [3-(3-Chloro-1H-indol-2-yl)-1-isopentyl-1H-pyrazolo[3,4-d]pyrimidin-4-amine]
- desired activity in the assays described in the Examples section (RET): did not exhibit the desired activity

Compound: Nc1ncnc2c1c(-c1[nH]c3ccccc3c1Cl)nn2CC1CCNC1 (centres unmarked) [3-(3-chloro-1H-indol-2-yl)-1-(pyrrolidin-3-ylmethyl)-1H-pyrazolo[3,4-d]pyrimidin-4-amine]
- desired activity in the assays described in the Examples section (RET): did not exhibit the desired activity

Compound: CS(=O)(=O)N1CCC(n2nc(-c3[nH]c4ccccc4c3Cl)c3c(N)ncnc32)CC1 [Example 4, 3-(3-Chloro-1H-indol-2-yl)-1-(1-methylsulfonyl-4-piperidyl)pyrazolo[3,4-d]pyrimidin-4-amine]
- IC50 (KDR): > 30 µM

Compound: CC(C)(C)OC(=O)N[C@H]1CC[C@@H](n2nc(-c3cc4cccnc4[nH]3)c3c(N)ncnc32)CC1 [Example 27, tert-Butyl N-[cis-4-(4-amino-3-{1H-pyrrolo[2,3-b]pyridin-2-yl}-1H-pyrazolo[3,4-d]pyrimidin-1-yl)cyclohexyl]carbamate]
- IC50 (KDR): > 30 µM

Compound: CC(C)(C)OC(=O)N[C@H]1CC[C@H](n2nc(-c3cc4cccnc4[nH]3)c3c(N)ncnc32)CC1 [Example 28, tert-Butyl (trans-4-(4-amino-3-(1H-pyrrolo[2,3-b]pyridin-2-yl)-1H-pyrazolo[3,4-d]pyrimidin-1-yl)cyclohexyl)carbamate]
- IC50 (KDR): > 30 µM

Compound: Nc1ncnc2c1c(-c1cc3cccnc3[nH]1)nn2[C@H]1CC[C@H](NC(=O)C2CC2)CC1 [Example 36, N-(trans-4-(4-Amino-3-(1H-pyrrolo[2,3-b]pyridin-2-yl)-1H-pyrazolo[3,4-d]pyrimidin-1-yl)cyclohexyl)cyclopropanecarboxamide]
- IC50 (KDR): > 30 µM

Compound: CC(C)n1nc(-c2cc3ccccc3[nH]2)c2c(N)ncnc21 [Example 44, 3-(1H-Indol-2-yl)-1-isopropyl-pyrazolo[3,4-d]pyrimidin-4-amine]
- IC50 (RET): 0.0187 µM
- IC50 (KDR): 4.57 µM
- IC50 (RET^V804M): 1.87 µM
- IC50 ([1]; BaF3 cells expressing KIF5B-RET, 48 hours, CellTiter-Glo): 83.6 nM
- IC50 [2]: 2770 nM
- IC50 (RET^V804M Cell): 1470 nM
- IC50 [3]: 3.63 µM

Compound: Cn1nc(-c2[nH]c3ncccc3c2Cl)c2c(N)ncnc21 [Example 65, 3-(3-Chloro-1H-pyrrolo[2,3-b]pyridin-2-yl)-1-methyl-pyrazolo[3,4-d]pyrimidin-4-amine]
- desired activity in the assays described in the Examples section (RET): did not exhibit the desired activity
- IC50 (RET): > 30 µM
- IC50 (RET^V804M): > 30 µM
- IC50 [1]: 1010 nM

Compound: Nc1ncnc2c1c(-c1[nH]c3ncccc3c1Cl)nn2C1CCCCC1 [Example 67, 3-(3-Chloro-1H-pyrrolo[2,3-b]pyridin-2-yl)-1-cyclohexyl-pyrazolo[3,4-d]pyrimidin-4-amine]
- IC50 (RET): > 30 µM
- IC50 (RET^V804M): > 30 µM
- IC50 [1]: 68.7 nM

Compound: CN(C)C1CCN(CCn2nc(-c3[nH]c4ncccc4c3Cl)c3c(N)ncnc32)CC1 [Example 77, 3-(3-Chloro-1H-pyrrolo[2,3-b]pyridin-2-yl)-1-(2-(4-(dimethylamino)piperidin-1-yl)ethyl)-1H-pyrazolo[3,4-d]pyrimidin-4-amine]
- IC50 (KDR): > 30 µM
